Results from the kinase profiling compilation of Christmann-Franck et al. (2016).

Columns and labels:
Assay in all cases: KINOMEscan competition binding
Conditions in all cases: compound 10.0 µM
HUNK (human) = HUNK (human) (UniProt P57058)
CLK3 (human) = CLK3 (human) (UniProt P49761)
CDK7 (human) = CDK7 (human) (UniProt P50613)
TGFBR1 (human) = TGFBR1 (human) (UniProt P36897)
PAK6 (human) = PAK6 (human) (UniProt Q9NQU5)
[1] = test system: EGFR (human), P00533 [752-759 del]
LTK (human) = LTK (human) (UniProt P29376)
PIM3 (human) = PIM3 (human) (UniProt Q86V86)
[2] = test system: EGFR (human), P00533 [747-751 del / S ins]
NEK9 (human) = NEK9 (human) (UniProt Q8TD19)
MAP4K5 (human) = MAP4K5 (human) (UniProt Q9Y4K4)
MAPK4 (human) = MAPK4 (human) (UniProt P31152)
GSK3A (human) = GSK3A (human) (UniProt P49840)
ACVRL1 (human) = ACVRL1 (human) (UniProt P37023)
[3] = test system: KIT (human), P10721 [D816V]
CSNK1D (human) = CSNK1D (human) (UniProt P48730)
EPHB1 (human) = EPHB1 (human) (UniProt P54762)
PRKCD (human) = PRKCD (human) (UniProt Q05655)
ICK (human) = ICK (human) (UniProt Q9UPZ9)
BMPR2 (human) = BMPR2 (human) (UniProt Q13873)
BMPR1A (human) = BMPR1A (human) (UniProt P36894)
RIPK1 (human) = RIPK1 (human) (UniProt Q13546)
TBK1 (human) = TBK1 (human) (UniProt Q9UHD2)
SRPK2 (human) = SRPK2 (human) (UniProt P78362)
AXL (human) = AXL (human) (UniProt P30530)
[4] = test system: KIT (human), P10721 [L576P]
[5] = test system: ABL1 (human), P00519 [Y253F]
SGK3 (human) = SGK3 (human) (UniProt Q96BR1)
ERN1 (human) = ERN1 (human) (UniProt O75460)
MAPK7 (human) = MAPK7 (human) (UniProt Q13164)
MAPK6 (human) = MAPK6 (human) (UniProt Q16659)
[6] = test system: EGFR (human), P00533 [G719S]
PRKG2 (human) = PRKG2 (human) (UniProt Q13237)
[7] = target: JAK3 JH1 catalytic (human) (UniProt P52333)
CAMK4 (human) = CAMK4 (human) (UniProt Q16566)
CHUK (human) = CHUK (human) (UniProt O15111)
MYLK2 (human) = MYLK2 (human) (UniProt Q9H1R3)
CDK16 (human) = CDK16 (human) (UniProt Q00536)
PLK1 (human) = PLK1 (human) (UniProt P53350)
NEK1 (human) = NEK1 (human) (UniProt Q96PY6)
[8] = test system: BRAF (human), P15056 [V600E]
CHEK2 (human) = CHEK2 (human) (UniProt O96017)

Sequence of MAPK4 (human) (P31152 whole entry, looked up): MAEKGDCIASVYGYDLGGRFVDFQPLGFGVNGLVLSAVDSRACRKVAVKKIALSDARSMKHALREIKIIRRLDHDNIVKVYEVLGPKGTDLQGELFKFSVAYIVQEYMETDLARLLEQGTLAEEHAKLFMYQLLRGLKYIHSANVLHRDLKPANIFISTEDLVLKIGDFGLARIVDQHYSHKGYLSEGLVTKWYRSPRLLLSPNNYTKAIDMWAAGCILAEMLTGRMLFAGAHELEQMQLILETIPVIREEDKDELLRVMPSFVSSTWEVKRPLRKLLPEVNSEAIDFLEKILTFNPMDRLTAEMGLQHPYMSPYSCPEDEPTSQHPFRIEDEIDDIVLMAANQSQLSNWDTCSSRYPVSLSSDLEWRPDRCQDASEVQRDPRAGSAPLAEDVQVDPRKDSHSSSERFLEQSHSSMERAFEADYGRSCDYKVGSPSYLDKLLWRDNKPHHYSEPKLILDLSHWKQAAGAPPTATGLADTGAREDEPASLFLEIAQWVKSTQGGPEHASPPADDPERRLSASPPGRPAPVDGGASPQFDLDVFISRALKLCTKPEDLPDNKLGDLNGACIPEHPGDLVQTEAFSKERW
Sequence of KIT (human), P10721 [D816V] (P10721 whole entry D816V, looked up): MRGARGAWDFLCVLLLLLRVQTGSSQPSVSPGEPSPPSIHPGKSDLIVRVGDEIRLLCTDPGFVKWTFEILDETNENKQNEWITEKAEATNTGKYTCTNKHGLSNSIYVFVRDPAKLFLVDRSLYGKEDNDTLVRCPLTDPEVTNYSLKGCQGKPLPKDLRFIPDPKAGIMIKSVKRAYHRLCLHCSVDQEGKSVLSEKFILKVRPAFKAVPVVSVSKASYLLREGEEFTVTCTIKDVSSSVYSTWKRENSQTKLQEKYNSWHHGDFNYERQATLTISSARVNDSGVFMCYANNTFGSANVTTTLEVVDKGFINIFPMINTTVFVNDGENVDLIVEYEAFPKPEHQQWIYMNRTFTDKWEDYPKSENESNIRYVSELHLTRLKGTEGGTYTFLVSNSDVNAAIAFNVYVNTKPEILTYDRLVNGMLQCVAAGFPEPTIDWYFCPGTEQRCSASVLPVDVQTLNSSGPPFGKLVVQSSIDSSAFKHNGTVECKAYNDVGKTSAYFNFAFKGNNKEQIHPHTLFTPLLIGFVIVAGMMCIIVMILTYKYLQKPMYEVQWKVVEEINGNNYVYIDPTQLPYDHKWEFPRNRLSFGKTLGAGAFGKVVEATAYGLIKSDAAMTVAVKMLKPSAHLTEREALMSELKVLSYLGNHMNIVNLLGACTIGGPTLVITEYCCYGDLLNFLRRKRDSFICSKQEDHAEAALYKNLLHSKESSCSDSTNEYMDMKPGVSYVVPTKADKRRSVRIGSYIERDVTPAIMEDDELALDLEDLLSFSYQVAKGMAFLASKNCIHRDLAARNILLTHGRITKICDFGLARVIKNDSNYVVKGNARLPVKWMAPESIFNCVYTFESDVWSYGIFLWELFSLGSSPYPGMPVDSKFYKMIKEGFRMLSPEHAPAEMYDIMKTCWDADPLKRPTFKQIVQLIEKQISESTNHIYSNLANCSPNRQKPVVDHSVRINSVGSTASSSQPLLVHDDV
Sequence of PAK6 (human) (Q9NQU5 whole entry, looked up): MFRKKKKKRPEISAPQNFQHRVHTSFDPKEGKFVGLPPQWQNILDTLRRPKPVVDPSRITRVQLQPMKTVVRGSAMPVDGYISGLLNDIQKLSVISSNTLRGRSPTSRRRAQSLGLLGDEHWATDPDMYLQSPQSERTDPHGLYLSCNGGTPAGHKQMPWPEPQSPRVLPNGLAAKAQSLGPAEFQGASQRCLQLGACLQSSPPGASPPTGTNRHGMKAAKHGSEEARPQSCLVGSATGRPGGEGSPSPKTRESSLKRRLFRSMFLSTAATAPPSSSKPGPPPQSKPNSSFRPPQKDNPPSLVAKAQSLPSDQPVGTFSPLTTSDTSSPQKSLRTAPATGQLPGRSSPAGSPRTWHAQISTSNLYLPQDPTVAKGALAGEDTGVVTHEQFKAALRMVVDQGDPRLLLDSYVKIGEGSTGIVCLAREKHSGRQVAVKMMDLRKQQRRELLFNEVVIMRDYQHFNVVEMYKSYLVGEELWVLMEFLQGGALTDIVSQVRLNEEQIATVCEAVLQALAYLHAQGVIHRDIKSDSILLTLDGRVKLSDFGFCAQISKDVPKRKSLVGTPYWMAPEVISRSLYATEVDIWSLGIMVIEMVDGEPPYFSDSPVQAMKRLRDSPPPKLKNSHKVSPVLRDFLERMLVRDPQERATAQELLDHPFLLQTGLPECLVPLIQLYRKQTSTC
Sequence of ACVRL1 (human) (P37023 whole entry, looked up): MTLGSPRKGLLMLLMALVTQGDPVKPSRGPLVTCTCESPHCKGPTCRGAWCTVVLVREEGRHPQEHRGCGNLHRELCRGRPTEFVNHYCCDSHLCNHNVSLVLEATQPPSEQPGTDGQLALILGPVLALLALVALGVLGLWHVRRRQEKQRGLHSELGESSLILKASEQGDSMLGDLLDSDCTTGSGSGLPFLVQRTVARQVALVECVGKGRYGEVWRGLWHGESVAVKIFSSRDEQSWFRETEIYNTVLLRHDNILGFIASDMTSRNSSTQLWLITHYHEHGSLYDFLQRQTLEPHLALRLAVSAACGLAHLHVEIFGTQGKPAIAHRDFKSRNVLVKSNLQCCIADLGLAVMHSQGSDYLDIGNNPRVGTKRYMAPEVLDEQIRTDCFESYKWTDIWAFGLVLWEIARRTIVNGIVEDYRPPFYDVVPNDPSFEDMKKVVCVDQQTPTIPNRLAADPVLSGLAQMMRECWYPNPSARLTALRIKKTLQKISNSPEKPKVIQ
Sequence of PRKG2 (human) (Q13237 whole entry, looked up): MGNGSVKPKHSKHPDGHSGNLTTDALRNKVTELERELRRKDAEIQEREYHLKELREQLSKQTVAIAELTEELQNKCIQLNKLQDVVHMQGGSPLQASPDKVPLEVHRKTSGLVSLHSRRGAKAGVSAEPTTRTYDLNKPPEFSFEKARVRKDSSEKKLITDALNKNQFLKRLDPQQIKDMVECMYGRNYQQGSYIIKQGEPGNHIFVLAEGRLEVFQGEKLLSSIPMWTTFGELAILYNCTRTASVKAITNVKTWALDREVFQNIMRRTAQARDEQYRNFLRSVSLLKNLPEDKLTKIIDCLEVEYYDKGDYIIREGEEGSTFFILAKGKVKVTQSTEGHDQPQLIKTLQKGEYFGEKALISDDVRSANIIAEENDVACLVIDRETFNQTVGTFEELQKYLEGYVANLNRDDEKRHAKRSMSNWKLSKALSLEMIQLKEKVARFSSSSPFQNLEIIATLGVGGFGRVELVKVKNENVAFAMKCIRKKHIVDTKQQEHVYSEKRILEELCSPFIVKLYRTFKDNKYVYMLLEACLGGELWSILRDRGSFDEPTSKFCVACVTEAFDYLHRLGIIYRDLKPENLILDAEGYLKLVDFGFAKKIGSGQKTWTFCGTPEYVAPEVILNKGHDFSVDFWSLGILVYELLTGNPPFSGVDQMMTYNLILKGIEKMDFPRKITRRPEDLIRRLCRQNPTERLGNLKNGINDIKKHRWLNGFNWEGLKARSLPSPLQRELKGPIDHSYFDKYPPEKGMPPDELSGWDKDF
Sequence of NEK9 (human) (Q8TD19 whole entry, looked up): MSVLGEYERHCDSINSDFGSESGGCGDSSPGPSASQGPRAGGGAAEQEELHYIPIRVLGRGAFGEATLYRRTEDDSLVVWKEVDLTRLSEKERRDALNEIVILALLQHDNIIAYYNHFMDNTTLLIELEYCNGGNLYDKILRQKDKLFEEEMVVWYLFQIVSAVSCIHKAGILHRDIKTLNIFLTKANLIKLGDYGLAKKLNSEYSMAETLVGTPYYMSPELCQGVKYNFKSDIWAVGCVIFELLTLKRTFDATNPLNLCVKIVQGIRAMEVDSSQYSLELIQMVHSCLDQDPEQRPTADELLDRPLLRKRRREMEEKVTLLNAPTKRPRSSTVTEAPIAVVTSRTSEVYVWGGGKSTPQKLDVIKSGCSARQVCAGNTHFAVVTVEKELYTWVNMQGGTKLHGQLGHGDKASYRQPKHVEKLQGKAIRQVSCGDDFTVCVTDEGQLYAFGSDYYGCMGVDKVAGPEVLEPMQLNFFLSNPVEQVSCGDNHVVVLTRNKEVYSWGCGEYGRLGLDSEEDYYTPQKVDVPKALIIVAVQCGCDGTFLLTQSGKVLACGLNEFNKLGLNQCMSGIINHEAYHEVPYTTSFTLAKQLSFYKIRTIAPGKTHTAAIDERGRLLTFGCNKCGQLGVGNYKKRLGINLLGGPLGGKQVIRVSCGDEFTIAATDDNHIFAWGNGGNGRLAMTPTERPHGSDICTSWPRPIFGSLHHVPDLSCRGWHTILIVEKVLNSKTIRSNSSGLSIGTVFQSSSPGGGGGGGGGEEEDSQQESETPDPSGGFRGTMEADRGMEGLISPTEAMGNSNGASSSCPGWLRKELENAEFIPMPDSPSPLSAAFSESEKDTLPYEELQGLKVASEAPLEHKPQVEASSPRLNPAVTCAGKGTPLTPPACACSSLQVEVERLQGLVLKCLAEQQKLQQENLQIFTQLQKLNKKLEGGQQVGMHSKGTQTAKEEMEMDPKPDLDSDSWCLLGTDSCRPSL
Sequence of KIT (human), P10721 [L576P] (P10721 whole entry L576P, looked up): as the sequence (P10721 whole entry D816V, looked up) above, with L576P, V816D counted along it

Cc1cc([C@@H](C)Nc2ccccc2C(=O)O)c2nc(N3CCOCC3)cc(=O)n2c1 was tested, and the kinase still bound, per cent of control (HUNK (human)) was 94%, the kinase still bound, per cent of control (CLK3 (human)) was 95% and the kinase still bound, per cent of control (CDK7 (human)) was 90%. The kinase still bound, per cent of control (TGFBR1 (human)) was 100%, the kinase still bound, per cent of control (PAK6 (human)) was 96% and the kinase still bound, per cent of control [1] was 100%. It also gave a kinase still bound, per cent of control (LTK (human)) of 61%, a kinase still bound, per cent of control (PIM3 (human)) of 100% and a kinase still bound, per cent of control [2] of 68%. It also gave a kinase still bound, per cent of control (NEK9 (human)) of 94%, a kinase still bound, per cent of control (MAP4K5 (human)) of 92% and a kinase still bound, per cent of control (MAPK4 (human)) of 82%. The kinase still bound, per cent of control (GSK3A (human)) was 100%, the kinase still bound, per cent of control (ACVRL1 (human)) was 100% and the kinase still bound, per cent of control [3] was 100%. For the same compound, the kinase still bound, per cent of control (CSNK1D (human)) was 57%, the kinase still bound, per cent of control (EPHB1 (human)) was 99% and the kinase still bound, per cent of control (PRKCD (human)) was 100%. For the same compound, the kinase still bound, per cent of control (ICK (human)) was 100%, the kinase still bound, per cent of control (BMPR2 (human)) was 84% and the kinase still bound, per cent of control (BMPR1A (human)) was 79%. For the same compound, the kinase still bound, per cent of control (RIPK1 (human)) was 100%, the kinase still bound, per cent of control (TBK1 (human)) was 100% and the kinase still bound, per cent of control (SRPK2 (human)) was 88%. It also gave a kinase still bound, per cent of control (AXL (human)) of 100%, a kinase still bound, per cent of control [4] of 90% and a kinase still bound, per cent of control [5] of 100%. It also gave a kinase still bound, per cent of control (SGK3 (human)) of 100%, a kinase still bound, per cent of control (ERN1 (human)) of 100% and a kinase still bound, per cent of control (MAPK7 (human)) of 100%. It also gave a kinase still bound, per cent of control (MAPK6 (human)) of 78%, a kinase still bound, per cent of control [6] of 100% and a kinase still bound, per cent of control (PRKG2 (human)) of 100%. For the same compound, the kinase still bound, per cent of control [7] was 100%, the kinase still bound, per cent of control (CAMK4 (human)) was 100% and the kinase still bound, per cent of control (CHUK (human)) was 69%. For the same compound, the kinase still bound, per cent of control (MYLK2 (human)) was 94%, the kinase still bound, per cent of control (CDK16 (human)) was 100% and the kinase still bound, per cent of control (PLK1 (human)) was 55%. For the same compound, the kinase still bound, per cent of control (NEK1 (human)) was 100%, the kinase still bound, per cent of control [8] was 80% and the kinase still bound, per cent of control (CHEK2 (human)) was 100%.
